According to US8816095B2, “Na channels, disease, and related assays and compositions” (Georgetown University, priority 2008, dated 2014):
Where two headings read alike, the source gives them in different places.

Columns and labels:
hERG potassium channels = biological target: T1, hERG potassium channels (Homo sapiens, UniProt Q12809); assay: hERG binding assay ([35S]MK-499 displacement); settings: [35S]MK-499, HEK-293 hERG membranes
T1 construct: expressed in transfected cells; host or cells: HEK-293 (membranes)
Description: All four compounds were also counter-screened for human ether-a-go-go-related gene (hERG) activity against the radio-ligand MK-0499. Blockade of hERG K^+ channels is widely regarded as the predominant cause of drug-induced QT prolongation. (Aronov, A J Med Chem. 2006 Nov. 16; 49(23):6917-21).
MK-499, a potent hERG blocker, was used in a ligand binding assay to evaluate the binding of test compounds to hERG potassium channels as previously described (Wang, J et al. Am J Physiol Heart Circ Physiol, 2003, 284: H256-H267).^2 Test compounds were incubated with 0.05 nM of radiolabeled MK-499 ([35S]MK-499; specific Activity=1,279,010 μCi/μmol) in an assay buffer solution (70 mM NaCl, 60 mM KCl, 10 mM HEPES/NaOH (pH 7.4), 2 mM MgCl2, 1 mM CaCl2) also containing membranes isolated from HEK-293 cells stably expressing hERG channels in 96 well polypropylene deep-well assay plates at room temperature (25° C.) for >90 min. Assay plates were rinsed three time with buffer (130 mM NaCl, 10 mM HEPES/NaOH (pH 7.4), 2 mM MgCl2, 1 mM CaCl2) and the solution transferred to a Packard FilterMate Universal Harvester apparatus and filtered using PerkinElmer UniFilter-96 GF/C 96-well white microplates pre-soaked with 0.3% BSA (10 mL/L of 30% BSA). Plates were dried overnight at 37° C., or for 2 hrs at 56° C. The bottom of the plates were sealed and 0.025 mL of Microscint 0 was added to each well. The plates were top sealed and counted for 2 min/well in a Packard TopCount Scintillation counter. Test compounds were evaluated in a five point titration format using half-log steps from 0.3 μM to 30 μM. […] Less than 5% of the added radioactivity was retained on the filters. Assays were performed in triplicate.

hNav1.5 = biological target: T2, hNav1.5 (Homo sapiens, UniProt Q14524); assay: Fluorescent (FRET) based sodium channel assay, hNav1.5; assay type: cell-based; settings: HEK293 stably transfected with hNav1.5, 10 μM veratridine, read-out: hNav 1.5 IC50
T2 construct: expressed in transfected cells; host or cells: HEK293
Experimental: Two isoforms of the channel were examined: hNav1.5, a cardiac sodium channel associated with arrhythmias, and hNav1.7, an isoform found in the peripheral nervous system.
HEK293 cells stably transfected with either hNav1.5 or hNav1.7 were plated at approximately 11,000-20,000 cells/well in flat bottom, poly-D-lysine coated black-wall, clear-bottom, 384-well plates (Becton Dickinson, Bedford, Mass.), and incubated overnight at 37° C. in a 10% CO2 atmosphere in growth medium. Cells were washed with 0.03 mL of Dulbecco's phosphate buffered saline (D-PBS) containing calcium and magnesium. Cells were then incubated with 0.025 mL of a solution containing 10 μM CC2-DMPE and 0.02% pluronic acid in D-PBS with calcium and magnesium; supplemented with 10 mM glucose, and 10 mM Hepes-NaOH, pH 7.4. […] At the end of the incubation period, the plate was placed in a FLIPR TETRA instrument (MDS Analytical Technologies, Sunnyvale Calif.), illuminated at 390-420 nm, and fluorescence emissions were recorded at approximately 1 Hz at 460 and 580 nm. Following a 7 second baseline reading, 0.025 mL of VIPR-S containing 10 μM veratridine for Nav1.5 or 20 μM veratridine for Nav1.7 was added to each well, and the emissions of both dyes were recorded for an additional 33 seconds. […]

PC-3 cells = assay: PC-3 cell growth inhibition assay (WST-8); assay type: cell-based; settings: Homo sapiens, WST-8, 48 hours
Experimental: The effect of compound 2 was studied on the proliferation of human androgen independent prostate cancer (PC-3) cells, using a cell viability assay with WST-8. […].
PC-3 cells were added to the wells of a 96 well plate at 7500 cells per well in 100 uL of RPMI medium with 10% serum and allowed to plate down overnight. The medium was then removed and replaced with serum free medium containing the appropriate concentration of drug. DMSO concentration was kept below 1%. At this time WST-8 cell counting reagent was added to the control (T=0) wells and allowed to incubate for 2 hours and the absorbance was read at 450 nm to determine the starting number of cells per well. The plates were incubated for 48 hours, the medium was removed and the wells were washed with 100 uL of PBS. The PBS was removed that the wells were filled with 110 uL of serum free RPMI media containing the WST-8 reagent. After two hours of incubation, the plates absorbance was read at 450 nm and normalized to the control value.

T1 sequence (Q12809 whole entry): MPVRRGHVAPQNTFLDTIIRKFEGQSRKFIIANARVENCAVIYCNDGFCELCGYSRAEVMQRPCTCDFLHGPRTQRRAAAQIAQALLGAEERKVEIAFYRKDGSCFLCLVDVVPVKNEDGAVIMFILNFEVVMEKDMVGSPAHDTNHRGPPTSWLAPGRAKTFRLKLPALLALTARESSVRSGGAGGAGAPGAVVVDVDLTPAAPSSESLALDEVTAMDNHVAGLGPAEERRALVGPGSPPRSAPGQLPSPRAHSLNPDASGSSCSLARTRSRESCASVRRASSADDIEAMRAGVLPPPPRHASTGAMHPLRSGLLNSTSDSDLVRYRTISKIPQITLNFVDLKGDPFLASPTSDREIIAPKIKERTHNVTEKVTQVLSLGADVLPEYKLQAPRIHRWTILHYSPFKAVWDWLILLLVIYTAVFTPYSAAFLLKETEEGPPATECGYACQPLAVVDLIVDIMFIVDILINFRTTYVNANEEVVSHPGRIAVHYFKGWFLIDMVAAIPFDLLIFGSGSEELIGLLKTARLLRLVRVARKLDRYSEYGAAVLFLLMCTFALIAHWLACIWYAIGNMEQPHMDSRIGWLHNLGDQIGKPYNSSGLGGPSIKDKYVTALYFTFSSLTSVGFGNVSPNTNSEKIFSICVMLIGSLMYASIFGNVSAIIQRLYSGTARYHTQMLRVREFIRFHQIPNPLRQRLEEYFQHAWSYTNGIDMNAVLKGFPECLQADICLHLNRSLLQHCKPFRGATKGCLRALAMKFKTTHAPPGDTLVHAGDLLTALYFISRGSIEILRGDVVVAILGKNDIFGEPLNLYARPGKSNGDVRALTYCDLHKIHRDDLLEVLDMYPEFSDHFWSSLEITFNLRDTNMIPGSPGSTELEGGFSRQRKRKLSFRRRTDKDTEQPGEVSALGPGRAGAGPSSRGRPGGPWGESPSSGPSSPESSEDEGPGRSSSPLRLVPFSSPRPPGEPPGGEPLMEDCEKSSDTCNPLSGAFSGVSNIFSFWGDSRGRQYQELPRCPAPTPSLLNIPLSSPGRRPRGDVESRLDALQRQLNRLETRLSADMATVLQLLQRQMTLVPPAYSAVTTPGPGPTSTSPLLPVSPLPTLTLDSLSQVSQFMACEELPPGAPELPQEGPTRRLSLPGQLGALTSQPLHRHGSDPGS
T2 sequence (Q14524 whole entry): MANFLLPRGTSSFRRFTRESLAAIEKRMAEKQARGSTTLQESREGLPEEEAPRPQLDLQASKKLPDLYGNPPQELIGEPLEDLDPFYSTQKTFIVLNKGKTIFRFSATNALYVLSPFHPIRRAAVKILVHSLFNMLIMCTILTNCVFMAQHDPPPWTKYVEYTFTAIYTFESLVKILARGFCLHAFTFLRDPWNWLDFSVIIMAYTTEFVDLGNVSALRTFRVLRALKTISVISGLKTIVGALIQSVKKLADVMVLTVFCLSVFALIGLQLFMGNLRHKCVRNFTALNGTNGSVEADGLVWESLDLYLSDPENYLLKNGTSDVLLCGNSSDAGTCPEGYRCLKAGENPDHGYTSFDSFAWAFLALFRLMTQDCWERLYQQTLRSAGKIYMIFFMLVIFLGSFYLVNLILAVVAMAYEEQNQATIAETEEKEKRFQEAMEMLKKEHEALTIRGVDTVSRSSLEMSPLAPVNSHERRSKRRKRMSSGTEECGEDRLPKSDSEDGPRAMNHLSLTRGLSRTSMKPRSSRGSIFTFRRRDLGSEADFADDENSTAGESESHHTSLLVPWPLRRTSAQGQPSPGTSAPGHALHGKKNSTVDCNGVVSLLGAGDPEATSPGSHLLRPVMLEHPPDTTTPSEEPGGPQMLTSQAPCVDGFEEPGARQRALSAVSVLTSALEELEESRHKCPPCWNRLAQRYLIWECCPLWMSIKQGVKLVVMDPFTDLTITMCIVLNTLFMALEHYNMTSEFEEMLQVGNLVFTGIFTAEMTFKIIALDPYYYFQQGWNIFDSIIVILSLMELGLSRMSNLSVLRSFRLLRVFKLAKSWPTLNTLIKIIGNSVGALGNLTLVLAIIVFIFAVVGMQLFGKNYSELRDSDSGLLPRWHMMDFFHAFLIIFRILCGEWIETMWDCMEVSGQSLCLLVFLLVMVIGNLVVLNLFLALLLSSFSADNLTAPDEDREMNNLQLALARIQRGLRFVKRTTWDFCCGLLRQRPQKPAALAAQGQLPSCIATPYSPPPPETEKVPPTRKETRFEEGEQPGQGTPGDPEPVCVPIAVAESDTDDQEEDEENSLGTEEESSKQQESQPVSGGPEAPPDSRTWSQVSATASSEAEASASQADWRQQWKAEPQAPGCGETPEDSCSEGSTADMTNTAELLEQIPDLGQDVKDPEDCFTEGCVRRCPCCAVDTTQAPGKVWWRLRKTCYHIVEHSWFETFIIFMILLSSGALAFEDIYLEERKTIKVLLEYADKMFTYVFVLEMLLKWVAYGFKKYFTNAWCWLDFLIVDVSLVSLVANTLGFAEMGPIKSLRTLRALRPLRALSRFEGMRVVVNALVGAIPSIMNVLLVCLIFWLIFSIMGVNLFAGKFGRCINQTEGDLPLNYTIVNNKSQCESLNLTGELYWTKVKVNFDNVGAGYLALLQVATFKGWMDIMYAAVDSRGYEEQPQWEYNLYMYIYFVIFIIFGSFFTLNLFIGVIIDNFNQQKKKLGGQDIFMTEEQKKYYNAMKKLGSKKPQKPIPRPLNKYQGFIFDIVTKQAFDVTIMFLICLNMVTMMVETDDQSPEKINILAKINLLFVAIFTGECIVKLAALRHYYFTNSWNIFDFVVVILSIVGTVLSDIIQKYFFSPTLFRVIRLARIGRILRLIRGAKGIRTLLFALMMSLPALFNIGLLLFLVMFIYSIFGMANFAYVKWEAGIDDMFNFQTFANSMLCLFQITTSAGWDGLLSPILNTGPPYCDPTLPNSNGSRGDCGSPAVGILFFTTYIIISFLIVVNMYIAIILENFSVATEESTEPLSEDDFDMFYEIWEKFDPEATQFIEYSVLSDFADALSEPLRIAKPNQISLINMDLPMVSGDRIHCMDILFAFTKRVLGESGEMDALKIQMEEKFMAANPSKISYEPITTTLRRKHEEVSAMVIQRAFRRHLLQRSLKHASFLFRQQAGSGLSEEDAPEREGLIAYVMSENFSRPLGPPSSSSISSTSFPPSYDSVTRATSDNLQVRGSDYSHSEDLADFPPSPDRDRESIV

SMILES: O=C1NC(=O)C(c2ccccc2)(c2ccccc2)N1 [DPH, Diphenylhydantoin, reference compound]
- % inhibition for hERG assay, 0.3 μM (hERG potassium channels; 0.3 μM): 9%
- % inhibition for hERG assay, 1 μM (hERG potassium channels; 1 μM): 20%
- % inhibition for hERG assay, 3 μM (hERG potassium channels; 3 μM): 28%
- % inhibition for hERG assay, 10 μM (hERG potassium channels; 10 μM): 17%
- % inhibition for hERG assay, 30 μM (hERG potassium channels; 30 μM): 40%
- IC50 (hNav1.5): > 100 µM
- GI50 (PC-3 cells; read-out: GI50 in PC3 prostate cancer cells): > 100 µM
- GI50 (PC-3 cells; read-out: PC3 GI50 (μg)): > 100 µM
